# Experimental data: patent US5670520A, “Method for inhibiting virus replication in mammalian cells using carbostyil derivatives” (Otsuka Pharmaceutical Co., Ltd., priority 1996, dated 1997)
# Assays:
# thymidine kinase = assay: Thymidine kinase activity in extracts of treated Akata cells; type: cell-based; settings: 100 μg/ml vesnarinone
# Description: The pellet of frozen cells was suspended in 100 μl of kinase extraction buffer comprising 50 mM Tris (pH 8.0), 50 mM KCl, 1.0 mM MgCl2, 1.0 mM ATP, 1.0 mM DTT, 5.0% (v/v) glycerol, 80 μg/ml aprotinin, 40 μM leupeptin and 1.0 mM PMSF, and incubated on ice for 30 min after a brief sonication. The nuclei were removed by high speed centrifugation for 15 min and the supernatant (kinase extract) was aliquoted and stored at -70° C. The protein concentration of the kinase extract (about 4.0 mg/ml) was determined using standard Bradford Reagent (Bio-Rad Protein Assay Kit, Bio-Rad Laboratories, Hercules, Calif.), with BSA as a protein standard.
# 5.0 μl of the kinase extract was incubated at 37° C. with 35 µl of kinase reaction buffer comprising 150 mM phosphate (pH 7.5), 20 mM ATP, 20 mM MgCl2, 40 mM KCl, 1.0 mM DTT, 10 mM NaF and 20 μM [^3 H]thymidine (6.7 Ci/mmole, ICN) for 5 or 15 min. The reaction was terminated by placing on ice, and an addition of 4.0 μl of 0.5M EDTA (pH 8.0). […]
# The amount of phosphorylated [^3 H]thymidine derivatives formed during the reaction was determined by applying the reaction mixtures onto Whatman DE-81 paper filters, which were then washed four times in 1.0 mM ammoniumformate (pH 8.0), and once in ethanol before drying and liquid scintillation counting. […]
# U937 cells [1] = assay: Intracellular AZT-MP, AZT-DP, AZT-TP in U937 cells by HPLC; settings: vesnarinone 75 μM (30 μg/ml); [3H]AZT 2 hr
# Description: 1.0 ml fractions were collected, and the radioactivity was measured by liquid scintillation. The retention time for AZT and AZT-MP was confirmed using cold AZT and AZT-MP (Sigma) under the same conditions.
# Intracellular concentrations of [^3 H]AZT-MP, [^3 H]AZT-DP, and [^3 H]AZT-TP were measured using HPLC as described above.
# U937 cells [2] = assay: [3H]thymidine uptake in U937 cells within 1 min; type: cell-based, human; settings: 0-250 μM vesnarinone or 0-1000 nM dipyridamole
# Description: Dipyridamole was prepared as a 50 mM stock solution dissolved in ethanol.
# CHO cells = assay: [3H]adenosine / [3H]adenine transport in CHO cells; settings: 0-750 μM vesnarinone or 0-100 μM dipyridamole, 1 min pulse
smiles,measurement,setting,value
"COc1ccc(C(=O)N2CCN(c3ccc4c(c3)CCC(=O)N4)CC2)cc1OC [vesnarinone, 3,4-dihydro-6-[4-(3,4-dimethoxybenzoyl)-1-piperazinyl]-2(1H)-quinoline]",increase in dTTP-resistant thymidine kinase,thymidine kinase; 100 μM dTTP in reaction,partially suppressed by vesnarinone treatment
same,increase in whole thymidine kinase activity in anti-IgG treated cells,thymidine kinase; without dTTP,partially inhibited in the presence of vesnarinone
same,increase of intracellular AZT-DP,U937 cells [1],45%
same,increase of intracellular AZT-MP,U937 cells [1],100%
same,uptake of thymidine,U937 cells [2],inhibited the uptake of thymidine in a dose-dependent manner
same,[3H]adenosine and [3H]adenine transport,CHO cells,inhibitory effects on nucleoside and nucleobase transport in vitro were observed within the therapeutic range
